Reference: patent publication US10888569B1, “Methods and compositions for treating cancer” (THE UNIVERSITY OF CHICAGO, priority 2017, dated 2021)

Columns and labels:
[1] = tested on: TNBC cells (BM1, MB436, MB468, BT549); type: cell-based, human
Description: (§1) TNBC cell lines stably knocked down with lenti-viral shRNA for BACH1 were constructed and maintained as described previously. Gene expression analysis of cultured cells and isolated tumor tissues used a Reverse transcriptase kit followed by Roche96 cycler for real time mRNA quantification and Lycor imaging for immunoblotting. For in vitro cell viability assay with mitochondrial inhibitors, TNBC cells (2×10^3-5×10^3/well) seeded on 96 well plates overnight with culture media (DMEM with 25 mM Glucose) were treated with inhibitors in fresh culture media (DMEM with 1.25 mM Glucose) for 48 and 72 hours and stained with calcein AM and/or monitored for cellular confluency using an IncuCyte Zoom Live Cell Analysis system. Extracellular flux analyzer was used to assay metabolic phenotypes of BACH1-depleted TNBC cells and TNBC cells that are treated with hemin overnight before assays. For bioinformatics analysis using primary patient data cohort (TCGA), cBioportal and R were used.
Breast cancer cells (5,000 cells/well) and non-malignant mammary epithelial cells (8,000 cells/well) were plated on 96-well plates to observe growth of cells every 4 hours by phase contrast imaging using an IncuCyte Zoom Live Cell Analysis system (Essen Bioscience). After 24 hours of plating, inhibitors were added and monitored until control cells reached 100% confluent. To determine cell viability, cells were seeded in black walled 96-well plates overnight and treated with inhibitors for 48 hours. Calcein AM (R&D system) in PBS was then added and incubated for 1 hour at 37° C. Fluorescence was determined using a Victor3 plate reader (PerkinElmer) with excitation at 420 nm and emission at 520 nm. The absorbance was used to reflect live cell numbers and was normalized to those in control with vehicles and shown as relative viability (%).

[2] = tested on: mitochondrial inner membrane genes; assay: Real-time quantitative PCR of mitochondrial inner membrane (ETC) genes; type: cell-based, human; details: hemin 20 μM, 48 hours; BM1 and MB436 cells
Description: (§2) Total RNA from cells and tumor samples was isolated using Trizol (Invitrogen) according to the manufacturer's instructions. Two μg of RNA was adapted for reverse transcriptase PCR (Applied Biosystem) to generate cDNA. Real-time PCR was carried out using LightCycler 96 (Roche) and a Fast Start Essential DNA master mix (2×) reagent. Cq values normalized relative to the expression of endogenous control genes using 2^(−ΔΔCq) were plotted.

HMOX1 = assay: Real-time quantitative PCR of HMOX1; type: cell-based, human; details: hemin 20 μM, 48 hours; BM1 and MB436 cells
Description: as §2

TNBC cells (BM1) = assay: Metabolic phenotypes OCR and ECAR (Seahorse analyzer); type: cell-based, human; details: hemin (pre-)treatment overnight
Description: as §1
Extracellular acidification rates (ECAR) and oxygen consumption rates (OCR) were monitored by a Seahorse Bioscience Analyzer (XF24; Univ. of Illinois at Chicago and XFe96; Biophysics Core Facility at Univ. of Chicago). Cells were seeded in 24 well plates at a density of 5×10^4 and 96 well plates at a density of 8×10^3 cells per well with growth media for at least 18 hours. The following day, media was changed to base media (DMEM, 143 mM NaCl, Phenol red, pH 7.35). For ECAR analysis, cells were added with media (2 mM Glutamine, pH 7.35) and monitored every 3 minutes following successive administration of 10 mM of glucose, and inhibitors such as 1 μM of oligomycin and 50 mM of 2-DG. For OCR analysis, cells were added with mito stress test base media (10 mM Glucose, 2 mM Glutamine, 1 mM Pyruvate, pH 7.4) and monitored every 3 minutes following successive administration of inhibitors such as 2 μM of oligomycin, 2 μM of FCCP, and […] of Rotenone/AntimycinA. BCA protein assays were used to normalize metabolic rates to cell number.

[3] = tested on: BACH1-enriched TNBC PDX tumor; assay: Patient-derived xenograft (PDX) model treated with hemin and metformin; type: in vivo, mouse; details: hemin 50 mg/kg/day i.p. and/or metformin 300 mg/kg/day; SCID-BEIGE mice
Description: For a patient-derived xenografts (PDX) model, frozen PDX tumors in 0.5 ml of sterile HBSS were prepared in a volume of 10-20 mm^3. In brief, tumor fragments were implanted into the mammary fat pads of 5 weeks old SCID-Beige mice following standard procedures. […] Tumor volume was measured by caliper weekly. Tumor weight was measured at the end of drug treatment. Tumor size was shown as mean+/_s.e.m. with significance (p-value) by paired Student's t-test. All the animals were also monitored regularly for body weights.

pPDH (Ser293) = assay: Immunoblotting of PDX tumor lysates: pPDH (Ser293); type: in vivo, mouse; details: following hemin treatment

SMILES: C=CC1=C(C)c2cc3[n-]c(cc4[n-]c(cc5nc(cc1n2)C(C)=C5C=C)c(C)c4CCC(=O)O)c(CCC(=O)O)c3C.[Cl-].[Fe+3] [hemin, Chloro[3,7,12,17-tetramethyl-8,13-divinylporphyrin-2,18-dipropanoato(2-)]iron(III)]
- cytotoxicity / growth inhibition of cultured TNBC cells ([1]; 20 μM hemin): neither cytotoxic nor growth inhibitory
- metformin sensitivity of MB468 cells expressing wild type BACH1 when treated with hemin ([1]; MB468 transfected with pCDH-BACH1): metformin sensitivity was restored
- cytotoxicity / growth inhibition of TNBC cells ([1]; hemin 10-80 μM up to 124 hours): neither cytotoxic nor growth inhibitory
- mitochondrial gene expression [2]: increased
- HMOX1 expression (HMOX1): increased
- ECAR (TNBC cells (BM1)): lower basal ECAR
- maximum OCR (TNBC cells (BM1)): higher maximum OCR
- spare respiratory capacity (TNBC cells (BM1)): higher spare respiratory capacity
- PDX tumor volume, weight, size compared to controls [3]: considerable reduction in tumor volumes
- pPDH (Ser293) protein expression in PDX tumors (pPDH (Ser293)): depleted
